Data reported in US10189785B2, “Heterocyclic compound” (TAKEDA PHARMACEUTICAL COMPANY LIMITED, priority 2015, dated 2019).

What was measured:
[1] = target: T1, SPT (SPT2-expressing membrane fraction: human SPT1, human SPT2 and human ssSPTa) (Homo sapiens, UniProt O15269+O15270); assay: SPT enzyme inhibition test (Test Example 1); format: biochemical; conditions: read-out: Rate of inhibition (%) at 1 μM
T1 construct: Full-length human SPT1, human SPT2 and human ssSPTa used; made in house; host or cells: FreeStyle 293 cells (pcDNA3.1 vectors, cotransfection); crude membrane fraction used
T1 sequence (O15269 1-473): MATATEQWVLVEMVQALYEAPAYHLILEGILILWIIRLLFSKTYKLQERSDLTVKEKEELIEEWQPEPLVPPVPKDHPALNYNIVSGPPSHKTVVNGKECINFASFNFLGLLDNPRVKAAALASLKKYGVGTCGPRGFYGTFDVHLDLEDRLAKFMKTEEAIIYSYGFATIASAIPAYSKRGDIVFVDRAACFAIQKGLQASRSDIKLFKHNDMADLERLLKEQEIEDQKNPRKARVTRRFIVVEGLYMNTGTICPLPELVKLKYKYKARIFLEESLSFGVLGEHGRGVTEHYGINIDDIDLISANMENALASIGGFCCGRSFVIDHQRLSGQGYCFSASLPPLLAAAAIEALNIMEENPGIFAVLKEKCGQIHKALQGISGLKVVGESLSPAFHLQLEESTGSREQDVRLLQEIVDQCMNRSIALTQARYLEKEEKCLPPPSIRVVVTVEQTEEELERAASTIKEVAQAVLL
T1 sequence (O15270 1-562): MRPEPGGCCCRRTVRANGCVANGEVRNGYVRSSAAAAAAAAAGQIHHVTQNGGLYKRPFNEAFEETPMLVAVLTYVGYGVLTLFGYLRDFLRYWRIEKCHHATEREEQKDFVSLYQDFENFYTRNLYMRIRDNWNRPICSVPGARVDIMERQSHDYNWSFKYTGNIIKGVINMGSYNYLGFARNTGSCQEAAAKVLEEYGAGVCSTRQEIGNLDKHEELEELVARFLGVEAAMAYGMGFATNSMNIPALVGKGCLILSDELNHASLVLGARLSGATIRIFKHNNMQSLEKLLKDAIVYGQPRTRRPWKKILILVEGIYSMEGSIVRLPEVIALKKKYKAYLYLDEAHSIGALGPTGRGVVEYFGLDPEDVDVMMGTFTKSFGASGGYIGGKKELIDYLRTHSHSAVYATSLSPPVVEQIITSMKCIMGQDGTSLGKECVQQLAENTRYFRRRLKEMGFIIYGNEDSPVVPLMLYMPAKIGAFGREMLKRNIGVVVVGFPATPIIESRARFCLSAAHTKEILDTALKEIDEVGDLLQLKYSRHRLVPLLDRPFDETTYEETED
T1 sequence (Q969W0 1-71 partner): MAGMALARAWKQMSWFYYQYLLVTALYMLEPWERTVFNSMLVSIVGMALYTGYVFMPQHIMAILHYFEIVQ
Procedure, shortened: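 Membrane fraction (100 μg/mL stock) of cells expressing human SPT1, SPT2 and ssSPTa was preincubated 60 min at RT with compound in 100 mM Hepes pH 8.0 containing EDTA, DTT and 0.01% BSA. Reaction ran 15 min at RT with 2 mM L-serine and 20 μM palmitoyl CoA (solution concentrations), then formic acid quench. Product measured by RapidFire mass spectrometry against a C17-sphinganine internal standard, giving % inhibition.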

[2] = tested on: lung adenocarcinoma cell line HCC4006; assay: HCC4006 cell growth inhibition test (Test Example 2); format: cell-based; conditions: Homo sapiens, 120 h; 1 μM test compound; HCC4006 cells, culture for 5 days, CellTiter-Glo; read-out: Rate of inhibition (%) at 1 μM
Procedure, shortened: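 HCC4006 cells in RPMI-1640 with 10% FBS were seeded at 250 cells/well and dosed with compound the next day. After 5 days, viability was read by CellTiter-Glo luminescence. Percent inhibition was calculated against no-compound control and cell-free blank.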

inhibition at 1 µM [1] [%]	Structure (SMILES)	inhibition at 1 µM [2] [%]
96	COc1cc(C(=O)N2CC[C@@H](NC(=O)c3cn(C)nc3C)[C@@H](c3ccccc3)C2)cnc1OC [Example 152B, N-((3S,4R)-1-((5,6-dimethoxypyridin-3-yl)carbonyl)-3-phenylpiperidin-4-yl)-1,3-dimethyl-1H-pyrazole-4-carboxamide]	33
101	Cc1nn(C)c(Cl)c1C(=O)N[C@@H]1CCN(C(=O)c2cc(Cl)c3nccnc3c2)C[C@@H]1c1ccccc1 [Example 166B, 5-Chloro-N-((3S,4R)-1-((8-chloroquinoxalin-6-yl)carbonyl)-3-phenylpiperidin-4-yl)-1,3-dimethyl-1H-pyrazole-4-carboxamide]	53
101	COc1ccc(C(=O)N2CCC(NC(=O)c3ccccc3Cl)c3c2cnn3CCC(C)(C)O)cc1OC (stereo not shown) [Example 186A, 2-chloro-N-(4-(3,4-dimethoxybenzoyl)-1-(3-hydroxy-3-methylbutyl)-4,5,6,7-tetrahydro-1H-pyrazolo[4,3-b]pyridin-7-yl)benzamide]	47
100	COc1cc(C(=O)N2CC[C@@H](NC(=O)c3ncccc3C(F)(F)F)[C@@H](c3ccc(F)cc3)C2)cnc1OC [Example 191B, N-((3S,4R)-1-((5,6-dimethoxypyridin-3-yl)carbonyl)-3-(4-fluorophenyl)piperidin-4-yl)-3-(trifluoromethyl)pyridine-2-carboxamide]	47
101	O=C(N[C@@H]1CCN(C(=O)c2cc(Cl)c3nccnc3c2)C[C@@H]1c1ccccc1)c1ncccc1C(F)(F)F [Example 241B, N-((3S,4R)-1-((8-Chloroquinoxalin-6-yl)carbonyl)-3-phenylpiperidin-4-yl)-3-(trifluoromethyl)pyridine-2-carboxamide]	54
100	O=C(N[C@@H]1CCN(C(=O)c2cc(Cl)c3nccnc3c2)C[C@@H]1c1ccc(F)cc1)c1ncccc1C(F)(F)F [Example 245B, N-((3S,4R)-1-((8-Chloroquinoxalin-6-yl)carbonyl)-3-(4-fluorophenyl)piperidin-4-yl)-3-(trifluoromethyl)pyridine-2-carboxamide]	53

More lines, now with the values behind:

Structure (SMILES)	inhibition at 1 µM [1] [%]	inhibition at 1 µM [2] [%]
CCn1ncc2c1C(NC(=O)c1ccc(Cl)cc1C(F)(F)F)CCN2C(=O)c1cnc(OC)c(OC)c1 (stereo not shown) [Example 153A, 4-Chloro-N-(4-((5,6-dimethoxypyridin-3-yl)carbonyl)-1-ethyl-4,5,6,7-tetrahydro-1H-pyrazolo[4,3-b]pyridin-7-yl)-2-(trifluoromethyl)benzamide]	101	53
CCn1ncc2c1C(NC(=O)c1ccccc1OC(F)(F)F)CCN2C(=O)c1cnc(OC)c(OC)c1 (stereo not shown) [Example 155A, N-(4-((5,6-Dimethoxypyridin-3-yl)carbonyl)-1-ethyl-4,5,6,7-tetrahydro-1H-pyrazolo[4,3-b]pyridin-7-yl)-2-(trifluoromethoxy)benzamide]	103	53
CCn1ncc2c1[C@@H](NC(=O)c1ccc(Cl)cc1C(F)(F)F)CCN2C(=O)c1cnc(OC)c(OC)c1 [Example 165A, 4-Chloro-N-((7S)-4-((5,6-dimethoxypyridin-3-yl)carbonyl)-1-ethyl-4,5,6,7-tetrahydro-1H-pyrazolo[4,3-b]pyridin-7-yl)-2-(trifluoromethyl)benzamide]	101	52
COc1ncc(C(=O)N2CC[C@H](NC(=O)c3ccc(Cl)cc3C(F)(F)F)c3c2cnn3CC(F)F)cc1Cl [Example 170A, 4-Chloro-N-((7S)-4-((5-chloro-6-methoxypyridin-3-yl)carbonyl)-1-(2,2-difluoroethyl)-4,5,6,7-tetrahydro-1H-pyrazolo[4,3-b]pyridin-7-yl)-2-(trifluoromethyl)benzamide]	99	50
CCOc1cc(C(=O)N[C@@H]2CCN(C(=O)c3cc(Cl)c4nccnc4c3)C[C@@H]2c2ccccc2)n(C)n1 [Example 170B, N-((3S,4R)-1-((8-Chloroquinoxalin-6-yl)carbonyl)-3-phenylpiperidin-4-yl)-3-ethoxy-1-methyl-1H-pyrazole-5-carboxamide]	100	50
COc1cc(C(=O)N2CC[C@H](NC(=O)c3ccccc3OC(F)(F)F)c3c2cnn3C)cnc1OC [Example 171A, N-((7S)-4-((5,6-Dimethoxypyridin-3-yl)carbonyl)-1-methyl-4,5,6,7-tetrahydro-1H-pyrazolo[4,3-b]pyridin-7-yl)-2-(trifluoromethoxy)benzamide]	101	50
CCn1ncc2c1[C@@H](NC(=O)c1ccccc1OC(F)(F)F)CCN2C(=O)c1cnc(OC)c(OC)c1 [Example 178A, N-((7S)-4-((5,6-Dimethoxypyridin-3-yl)carbonyl)-1-ethyl-4,5,6,7-tetrahydro-1H-pyrazolo[4,3-b]pyridin-7-yl)-2-(trifluoromethoxy)benzamide]	101	53
O=C(N[C@@H]1CCN(C(=O)c2cc(Cl)c3nccnc3c2)C[C@@H]1c1ccccc1)c1ncccc1Cl [Example 246B, 3-Chloro-N-((3S,4R)-1-((8-chloroquinoxalin-6-yl)carbonyl)-3-phenylpiperidin-4-yl)pyridine-2-carboxamide]	101	55
O=C(N[C@@H]1CCN(C(=O)c2cc(Cl)c3nccnc3c2)C[C@@H]1c1ccccc1)c1ccccc1OC(F)(F)F [Example 254B, N-((3S,4R)-1-((8-chloroquinoxalin-6-yl)carbonyl)-3-phenylpiperidin-4-yl)-2-(trifluoromethoxy)benzamide]	99	55
Cc1cc(C(=O)N2CC[C@@H](NC(=O)c3ncccc3C(F)(F)F)[C@@H](c3ccccc3)C2)cn2c(C)cnc12 [Example 279B, N-((3S,4R)-1-((3,8-dimethylimidazo[1,2-a]pyridin-6-yl)carbonyl)-3-phenylpiperidin-4-yl)-3-(trifluoromethyl)pyridine-2-carboxamide]	103	44
COc1cc(C(=O)N2CC[C@@H](NC(=O)c3c(C)c(C)nn3C)[C@@H](c3ccccc3)C2)cc2nccnc12 [Example 324B, N-((3S,4R)-1-((8-methoxyquinoxalin-6-yl)carbonyl)-3-phenylpiperidin-4-yl)-1,3,4-trimethyl-1H-pyrazole-5-carboxamide]	99	49
COc1cc(C(=O)N2CC[C@@H](NC(=O)c3cc(C4CC4)nn3C)[C@@H](c3ccccc3)C2)cc2nccnc12 [Example 330B, 3-cyclopropyl-N-((3S,4R)-1-((8-methoxyquinoxalin-6-yl)carbonyl)-3-phenylpiperidin-4-yl)-1-methyl-1H-pyrazole-5-carboxamide]	102	49
Cc1nn(C)c(Cl)c1C(=O)N[C@@H]1CCN(C(=O)c2cc(Cl)c3ncc(C)n3c2)C[C@@H]1c1ccccc1 [Example 342B, 5-chloro-N-((3S,4R)-1-((8-chloro-3-methylimidazo[1,2-a]pyridin-6-yl)carbonyl)-3-phenylpiperidin-4-yl)-1,3-dimethyl-1H-pyrazole-4-carboxamide]	101	51
Cc1nn(C)c(Cl)c1C(=O)N[C@@H]1CCN(C(=O)c2cc(C)c3ncc(C)n3c2)C[C@@H]1c1ccccc1 [Example 344B, 5-chloro-N-((3S,4R)-1-((3,8-dimethylimidazo[1,2-a]pyridin-6-yl)carbonyl)-3-phenylpiperidin-4-yl)-1,3-dimethyl-1H-pyrazole-4-carboxamide]	103	51
